From patent US20210101881A1 (Ancureall Pharmaceutical (Shanghai) Co., Ltd., priority 2018, published 2021) come the findings set out here.

The subject of the assay is MOLM13 cells. As to the kind of experiment: Growth inhibition of CDK9-positive cell line MOLM13 in vitro (CCK8/MTT assay). As to conditions: Homo sapiens. The assay is classed as cell-based, human. The procedure:
1. MOLM13 cell line and cell culture MOLM13 is a CDK9-positive human acute myeloid leukemia cell line from DMSZ. Suspension culture was carried out in RPMI1640 (Gibco) medium with 10% fetal bovine serum (Gibco), 1% penicillin-streptomycin and 2 mM glutamine.
Suspended MOLM-13 cells in logarithmic growth phase were collected by centrifugation (1700 rpm, 3 minutes), the supernatant was discarded, and the cells were counted. A solution with a cell concentration of 2×10^5 cells per milliliter was formulated and inoculated in a 96-well plate (Corning) with 100 microliters per well. The plate was incubated at 37° C., 5% CO2 overnight. On the next day, the test compound was added to the cultured cells in two parallel wells. […]
The present compound and the control compounds were respectively dissolved in DMSO (Sigma).
When the solvent control well became dark yellow, the OD450 nm absorption value was measured, and the cell growth rate was calculated according to the following formula. Cell growth rate %=100*(T−T0)/(C−T0), wherein T=the optical density value of the drug-treated well—the optical density value of the blank control well, T0=the optical density value of the well before drug treatment—the optical density value of the blank control well, C=the optical density value of the solvent control well—the optical density value of the blank control well. […] The assay was repeated three times, and the data was subjected to a biological statistical analysis.
In general terms: Formazan colour is commonly taken as a measure of viable cells.

[1] abbreviates: MOLM-13, MOLM13 cells, cultured 3 to 6 days, CCK8, read-out: IC50 of the compound for inhibiting cell growth, MOLM13 cells.

For orientation: IC50 means the midpoint of a concentration-inhibition curve.

Like-named read-outs stand apart in the source and are kept apart here.

Consider `CCC(=O)N1CCN(c2ccc(Nc3nccc(-n4cc(C(N)=O)c5ccccc54)n3)cc2C)CC1` [Compound 65, 1-{2-[3-methyl-4-(4-propionyl-piperazin-1-yl)-phenylamino]-pyrimidin-4-yl}-1H-indole-3-carboxamide], for which the IC50 under setting [1] is 10 to 100 nM.

Consider `CC(=O)N1CCN(c2ccc(Nc3nccc(-n4cc(C(N)=O)c5ccccc54)n3)cc2F)CC1` [Compound 66, 1-{2-[4-(4-acetyl-piperazin-1-yl)-3-fluoro-phenylamino]-pyrimidin-4-yl}-1H-indole-3-carboxamide], for which, under setting [1], the IC50 lay in the range of 10 to 100 nM.

Regarding `COC1CCN(c2ccc(Nc3nccc(-n4cc(C(N)=O)c5ccccc54)n3)cc2)CC1` [Compound 67, 1-{2-[4-(4-methoxy-piperidin-1-yl)-phenylamino]-pyrimidin-4-yl}-1H-indole-3-carboxamide], the IC50 under setting [1] is 10 to 100 nM.

`Cc1cc(Nc2nccc(-n3cc(C(N)=O)c4ccccc43)n2)ccc1N1CCC(N(C)C)CC1` [Compound 68, 1-{2-[4-(4-dimethylamino-piperidin-1-yl)-3-methyl-phenylamino]-pyrimidin-4-yl}-1H-indole-3-carboxamide]: the IC50 under setting [1] was in the range of 1 to 10 nM.

`CN1CCCN(c2ccc(Nc3nccc(-n4cc(C(N)=O)c5ccccc54)n3)cc2)CC1` [Compound 69, 1-{2-[4-(4-methyl-[1,4]homopiperazin-1-yl)-phenylamino]-pyrimidin-4-yl}-1H-indole-3-carboxamide]: the IC50 under setting [1] fell in the range of 1 to 10 nM.

Regarding `NC(=O)c1cn(-c2ccnc(Nc3ccc(N4CCOCC4)cc3)n2)c2ccccc12` [Compound 70, 1-[2-(4-morpholin-4-yl-phenylamino)-pyrimidin-4-yl]-1H-indole-3-carboxamide], the IC50 under setting [1] lay in the range of 10 to 100 nM.

In the case of `NC(=O)c1cn(-c2ccnc(Nc3ccc(N4CCOCC4)c(F)c3)n2)c2ccccc12` [Compound 71, 1-[2-(3-fluoro-4-morpholin-4-yl-phenylamino)-pyrimidin-4-yl]-1H-indole-3-carboxamide], the 50% inhibitory concentration (IC50) under setting [1] was 10 to 100 nM.

On to `CN(CCN1CCOCC1)c1ccc(Nc2nccc(-n3cc(C(N)=O)c4ccccc43)n2)cc1` [Compound 72, 1-(2-{4-[methyl-(2-morpholin-4-ethyl)-amino]-phenylamino}-pyrimidin-4-yl)-1H-indole-3-carboxamide], for which the IC50 under setting [1] was 10 to 100 nM.

`CN1CCN(CCN(C)c2ccc(Nc3nccc(-n4cc(C(N)=O)c5ccccc54)n3)cc2)CC1` [Compound 73, 1-[2-(4-{methyl-[2-(4-methyl-piperazin-1-yl)-ethyl]-amino}-phenylamino)-pyrimidin-4-yl]-1H-indole-3-carboxamide]: the IC50 (MOLM-13, read-out: IC50 of the compound for inhibiting cell growth, MOLM13 cells) is 1 to 10 nM.

Take `CC(=O)N1CCN(CCN(C)c2ccc(Nc3nccc(-n4cc(C(N)=O)c5ccccc54)n3)cc2)CC1` [Compound 74]: the IC50 under setting [1] is 10 to 100 nM.

For the molecule `CN(C)c1ccc(Nc2nccc(-n3cc(C(N)=O)c4ccccc43)n2)cc1` [Compound 75, 1-[2-(4-dimethylamino-phenylamino)-pyrimidin-4-yl]-1H-indole-3-carboxamide], the IC50 under setting [1] lay within 100 to 1000 nM.

`CN(C)CCCN(C)c1ccc(Nc2nccc(-n3cc(C(N)=O)c4ccccc43)n2)cc1` [Compound 76, 1-(2-{4-[(3-dimethylamino-propyl)-methyl-amino]-phenylamino}-pyrimidin-4-yl)-1H-indole-3-carboxamide]: the IC50 under setting [1] is 10 to 100 nM.

`CN(C)CCN(C)c1ccc(Nc2nccc(-n3cc(C(N)=O)c4ccccc43)n2)cc1` [Compound 77, 1-(2-{4-[(2-dimethylamino-ethyl)-methyl-amino]-phenylamino}-pyrimidin-4-yl)-1H-indole-3-carboxamide]: the IC50 under setting [1] lay within 10 to 100 nM.

With `CN(C)CCN(C)c1ccc(Nc2nccc(-n3cc(C(N)=O)c4ccccc43)n2)c(Br)c1` [Compound 78, 1-(2-{2-bromo-4-[(2-dimethylamino-ethyl)-methyl-amino]-phenylamino}-pyrimidin-4-yl)-1H-indole-3-carboxamide], under setting [1], the IC50 lay in the range of 100 to 1000 nM.

As to `Cc1cc(Nc2nccc(-n3cc(C(N)=O)c4ccccc43)n2)ccc1N(C)CCN(C)C` [Compound 79, 1-(2-{4-[(2-dimethylamino-ethyl)-methyl-amino]-3-methyl-phenylamino}-pyrimidin-4-yl)-1H-indole-3-carboxamide], the IC50 under setting [1] was in the range of 1 to 10 nM.

As for `COc1cc(Nc2nccc(-n3cc(C(N)=O)c4ccccc43)n2)ccc1N(C)CCN(C)C` [Compound 80, 1-(2-{4-[(2-dimethylamino-ethyl)-methyl-amino]-3-methoxy-phenylamino}-pyrimidin-4-yl)-1H-indole-3-carboxamide], the half-inhibitory concentration (IC50) under setting [1] fell in the range of 1 to 10 nM.

For `CC(C)Oc1cc(Nc2nccc(-n3cc(C(N)=O)c4ccccc43)n2)ccc1N(C)CCN(C)C` [Compound 81, 1-(2-{4-[(2-dimethylamino-ethyl)-methyl-amino]-3-isopropoxy-phenylamino}-pyrimidin-4-yl)-1H-indole-3-carboxamide], the IC50 under setting [1] fell in the range of 1 to 10 nM.

With `CN(C)CCN(C)c1ccc(Nc2nccc(-n3cc(C(N)=O)c4ccccc43)n2)cc1Cl` [Compound 82, 1-(2-{3-chloro-4-[(2-dimethylamino-ethyl)-methyl-amino]-phenylamino}-pyrimidin-4-yl)-1H-indole-3-carboxamide], under setting [1], the 50% inhibitory concentration (IC50) lay in the range of 10 to 100 nM.

In the case of `CN(C)CCCN(C)c1ccc(Nc2nccc(-n3cc(C(N)=O)c4ccccc43)n2)cc1Cl` [Compound 83, 1-(2-{3-chloro-4-[(3-dimethylamino-propyl)-methyl-amino]-phenylamino}-pyrimidin-4-yl)-1H-indole-3-carboxamide], under setting [1], the IC50 is 10 to 100 nM.

Turning to `CN(C)CCN(C)c1ccc(Nc2ncc(F)c(-n3cc(C(N)=O)c4ccccc43)n2)cc1` [Compound 84, 1-(2-{4-[(2-dimethylamino-ethyl)-methyl-amino]-phenylamino}-5-fluoro-pyrimidin-4-yl)-1H-indole-3-carboxamide], the IC50 under setting [1] lay in the range of 1 to 10 nM.

On to `CN(C)CCN(C)c1ccc(Nc2ncc(Cl)c(-n3cc(C(N)=O)c4ccccc43)n2)cc1` [Compound 85, 1-(5-chloro-2-{4-[(2-dimethylamino-ethyl)-methyl-amino]-phenylamino}-pyrimidin-4-yl)-1H-indole-3-carboxamide], for which the IC50 under setting [1] is 1 to 10 nM.

With `COc1cc(Nc2ncc(F)c(-n3cc(C(N)=O)c4ccccc43)n2)ccc1N(C)CCN(C)C` [Compound 86, 1-(2-{4-[(2-dimethylamino-ethyl)-methyl-amino]-3-methoxy-phenylamino}-5-fluoro-pyrimidin-4-yl)-1H-indole-3-carboxamide], under setting [1], the concentration for half-maximal inhibition (IC50) was in the range of 1 to 10 nM.

Consider `COc1cc(Nc2ncc(Cl)c(-n3cc(C(N)=O)c4ccccc43)n2)ccc1N(C)CCN(C)C` [Compound 87, 1-(2-{4-[(2-dimethylamino-ethyl)-methyl-amino]-3-methoxy-phenylamino}-5-chloro-pyrimidin-4-yl)-1H-indole-3-carboxamide], for which, under setting [1], the IC50 fell in the range of 1 to 10 nM.

Regarding `CN(CCN1CCCC1)c1ccc(Nc2nccc(-n3cc(C(N)=O)c4ccccc43)n2)cc1` [Compound 90, 1-(2-{4-[methyl-(2-pyrrolidin-1-ylethyl)-amino]-phenylamino}-pyrimidin-4-yl)-1H-indole-3-carboxamide], the IC50 under setting [1] was in the range of 1 to 10 nM.

Consider `COc1cc(Nc2nccc(-n3cc(C(N)=O)c4ccccc43)n2)ccc1N(C)CCN1CCCC1` [Compound 91], for which, under setting [1], the IC50 was 1 to 10 nM.

On to `CN(CCN1CCCC1)c1ccc(Nc2nccc(-n3cc(C(N)=O)c4ccccc43)n2)cc1F` [Compound 92, 1-(2-{3-fluoro-4-[methyl-(2-pyrrolidin-1-yl-ethyl)-amino]-phenylamino}-pyrimidin-4-yl)-1H-indole-3-carboxamide], for which the half-inhibitory concentration (IC50) under setting [1] was in the range of 100 to 1000 nM.

Regarding `CN(CCN1CCCC1)c1ccc(Nc2ncc(F)c(-n3cc(C(N)=O)c4ccccc43)n2)cc1` [Compound 93, 1-(5-fluoro-2-{4-[methyl-(2-pyrrolidin-1-yl-ethyl)-amino]-phenylamino}-pyrimidin-4-yl)-1H-indole-3-carboxamide], under setting [1], the IC50 is 1 to 10 nM.

Consider `CN(CCN1CCCC1)c1ccc(Nc2ncc(Cl)c(-n3cc(C(N)=O)c4ccccc43)n2)cc1` [Compound 94, 1-(5-chloro-2-{4-[methyl-(2-pyrrolidin-1-yl-ethyl)-amino]-phenylamino}-pyrimidin-4-yl)-1H-indole-3-carboxamide], for which the IC50 under setting [1] lay in the range of 1 to 10 nM.

As to `CN(CCN1CCCC1)c1ccc(Nc2ncc(F)c(-n3cc(C(N)=O)c4ccccc43)n2)cc1F` [Compound 95, 1-(5-fluoro-2-{3-fluoro-4-[methyl-(2-pyrrolidin-1-yl-ethyl)-amino]-phenylamino}-pyrimidin-4-yl)-1H-indole-3-carboxamide], the IC50 under setting [1] was 10 to 100 nM.

Consider `Cc1cc(Nc2ncc(F)c(-n3cc(C(N)=O)c4ccccc43)n2)ccc1N(C)CCN1CCCC1` [Compound 96, 1-(5-fluoro-2-{3-methyl-4-[methyl-(2-pyrrolidin-1-yl-ethyl)-amino]-phenylamino}-pyrimidin-4-yl)-1H-indole-3-carboxamide], for which the IC50 under setting [1] lay in the range of 1 to 10 nM.

For `Cc1cc(Nc2ncc(Cl)c(-n3cc(C(N)=O)c4ccccc43)n2)ccc1N(C)CCN1CCCC1` [Compound 97, 1-(5-chloro-2-{3-methyl-4-[methyl-(2-pyrrolidin-1-yl-ethyl)-amino]-phenylamino}-pyrimidin-4-yl)-1H-indole-3-carboxamide], under setting [1], the IC50 lay in the range of 1 to 10 nM.
